Test results taken from publication PMC8750417, “Intracellular Amplifiers of Reactive Oxygen Species Affecting Mitochondria as Radiosensitizers” (Cancers, 2021).

Assays:
[1] = n-octanol/water partition coefficient (logP) by RP-TLC; type: physicochemical; details: for logP (Hydrolyzed Prodrug): n-octanol/water partition coefficient of the hydrolyzed boronic acid (_BA) form of the prodrug named; for logP (Prodrug): n-octanol/water partition coefficient of the intact prodrug (or control 2c_c), RP-TLC, MOPS pH 7.4
Description: Determination of n-octanol/water partition coefficients (LogP) […]
mixture of dichloromethane/CH3OH at proper concentrations. Commercially available […]
7.4) (6/4, v/v) was used. The solvent migration distance was around 4.5 cm. The plates […]
and its distance was manually measured. All measurements were done in at least triplicate and average values were used in further calculations. All experiments were performed at ambient temperature (22 ± 2 °C). […]

A2780 cells = assay: Cell viability, MTT assay, A2780; type: cell-based, human
Description: (§1) Determination of viability of cells in the presence of prodrugs and controls A2780 and BL-2 cells The medium was removed, and the cells were washed two times with DPBS, trypsinated, and resuspended in RPMI 1640 medium (A2780) supplemented with 5% FBS (for 24 h and 48 h assay) or 10% FBS (for 96 h assay) , 1% L-glutamine, and 1% penicillin/streptomycin.
(§2) A2780 cells: This suspension was spread in the wells of a 96 -well microtiter plate (25000 cells for A2780 per well per 100 μL) and left standing at 37 °C in the chamber filled with CO2 (5%) for overnight. Stock solutions of prodrugs of different concentra tions (1 μL, solvent dmso, final concentrations in wells were 2, 5, 10, 30, 50 μM) were added to the wells and incubated for specific periods of time. Four experiments were conducted for each concentration of the prodrug. Finally, 3-(4,5-dimethylthiazol-2-yl)-2,5-diphenyltetrazolium bromide (MTT, 20 μL of the solution prepared by dissolving MTT (5 mg) in DPBS buffer (1 mL)) was added to each well, incubated for 3 h, treated with sodium dodecyl sulfate (SDS) solution (90 μL, 10% solution in 0.01 M aqueous HC l), and incubated overnight. Afterward, the intensity of the absorbance at 590 nm was measured.
(§3) MTT is converted in live cells to blue dye with the absorbance maximum λ max at 590 nm.
The absorbance at 690 nm was taken as a baseline value. The baseline corrected absorbance at 590 nm (A(590 nm) − A(690 nm)) was applied to calculate the relative number of viable cells. IC50 values were determined by fitting the experimental data expressing the number of viable cells (%, Y-axis) versus drug concentration (μM, X-axis) with a line curve and the X-axis value corresponding to 50% viability was considered as IC50 value according to the line curve (Figure S50, Table S2). […]

[2] = Prodrug-induced generation of ROS in cell free settings (DCFH/H2O2); details: relative acceleration of the rate of DCFH fluorescence increase with H2O2, pH 7.4; FeSO4 = 1.0
Description: As previously reported, the NAAF-prodrugs react with ROS like H2O2, first leading to the cleavage of the B-C-bond with the formation of the phenol derivatives (product 2c-1, Figure S49, SI). The latter compounds exist in equilibrium with the corresponding phenolates. The phenolates undergo the spontaneous 1,6-elimination of para-quinone methide (QM) followed by the release of CO2 with the formation of the N-alkylaminoferrocene NAAF drugs (product 2c-2, Figure S46, SI). By using electrospray ionization mass spectrometry (ESI–MS), we confirmed for one representative prodrug 2c that it reacts with H2O2 in cell free settings according to this common mechanism (ESI-MS, Figures S46–S48, SI). The NAAF is further oxidized by H2O2 or molecular oxygen with the generation of drug NAAF^+ and highly toxic HO• or/and O2^•−. Finally, the NAAF^+ is reduced by glutathione (GSH), thereby closing the catalytic cycle, in which the NAAF acts as a catalyst. We evaluated the formation of HO• or/and O2^•− by using 2′,7′-dichlorodihydrofluorescein (DCFH) as a probe (Table 1, Figure S49, SI). This probe is oxidized to the fluorescent product 2′,7′-dichlorofluorescein (DCF) in the presence of HO• or/and O2^•−. […] The lower activity of 2c and 2d correlates with their higher lipophilicity and their correspondingly higher propensity to form aggregates in aqueous solution (Figure S45, SI).
Prodrug-induced generation of ROS in cell free settings
2',7'-Dichlorodihydrofluorescein diacetate (DCFH-DA, 4.9 mg) was dissolved in DMF (100 μL) and mixed with aqueous NaOH (0.1 M, 900 μL). The resulting mixture was incubated for 30 min at 22 °C in the dark to obtain a stock solution of 2',7'-dichlorodihydrofluorescein (DCFH, 10 mM). Next, DCFH (1 µL ) was added to the solution containing MOPS buf fer (100 mM, pH 7.4), N,N,N'N' -e thylenediaminetetraacetic acid (EDTA , 10 mM) and glutathione (GSH , 5 mM) (1 mL, final concentration of DCFH 10 μM). The reaction mixture was heated to 37 °C and H2O2 (1 µL, final concentration 10 mM) was added. The reaction was monitored by fluorescence spectroscopy: λex = 501 nm, λem = 523 nm. After around 5 min, prodrugs (1 mM in DMF, 10 μL) or positive control FeSO4 (1 mM in water, 10 μL) were added, and the fluorescence monitoring was continued until the fluorescence signal growth was stalled after approximately 100 to 300 min. A representative kinetics of ROS […]
The data are presented in Table 1 as relative acceleration of the rate of the fluorescence increase, where the rate of the fluorescence increase obtained in the presence of positive control FeSO4 was set […]
y = a time + b (a = (dF/dt) , min-1)
Figure S49. Increase of the fluorescence intensity (λex = 501 nm, λem = 523 nm) upon oxidation of DCFH by H2O2 in the presence of FeSO4. Experimental details are provided in the description above. The time point of the FeSO4 addition is indicated with a black […]
(also on this page, place not known: ° C µL) buffer N,N,N'N'-ethylenediaminetetraacetic (EDTA, (GSH, ° C FeSO 4 (λ ex λ em Fluorescence (a.u.) (dF/dt)0, min -1 Addition of)
(1 picture or pasted object on this page, not shown here)

[3] = system: chronic lymphocytic leukemia (CLL) cells; assay: Viability of primary CLL cells (CellTiter Glo); type: cell-based, human; details: viability of CLL vs MNC, 48 h; for 2c at 3.3 and 10 µM
Description: Determination of viability of primary cancer (CLL) and normal (MNC) cells in the […]
Clinical samples from chronic lymphocytic leukemia (CLL) patients (N=6, CLL cells) and healthy donors (N=6; peripheral blood mononuclear cells, MNCs) were collected at the University Hospital Heidelberg, Germany. Informed consent was obtained in accordance with the Declaration of Helsinki. Sample collection and analysis was approved by the ethics committee of the University of Heidelberg (S-254/2016). Blood was separated by a Ficoll gradient (GE Healthcarey), and cells were cryopreserved. Drug sensitivity screening was performed in 384-well format (Greiner Bio One) with 10 different prodrug […]
4x10^4 cells per well. Cells were cultured in RPMI-1640 (Invitrogen) supplemented with penicillin/streptomycin (Invitrogen), L-glutamine (Invitrogen) and 10% pooled and heat inactivated AB-type human serum (Sigma-Aldrich). Cell viability was assessed by quantification of ATP (CellTiter Glo®, Promega) 48 hours after drug application.
Luminescence was measured on a Tecan Infinite F200 Microplate Reader. Viability was calculated as % of solvent (DMSO) treated control. Representative plots of cell viability

[4] = Solubility in RPMI 1640 medium, precipitation seen by bright field optical microscopy; details: DMSO 1%; for Solubility: 48 h incubation in RPMI 1640, FBS 5%, first signs of precipitation
Description: The latter medium was selected, since we used it for the cellular assays. […] Then we monitored the formation of (not detectable in the previous experiment) aggregated species in prodrug solutions that appeared transparent (concentrations < 50 µM) by using dynamic light scattering. […]
Solubility of drugs in aqueous buffers
Observing prodrug precipitation by using bright field optical microscopy […]
glutamine (1 %), and penicillin/streptomycin (1 %) was filled into 96-well microtiter plates (100 µL for each well) and compounds in DMSO stock solution (1 µL) were added. Each well was monitored by using bright field optical microscopy both immediately after […]

BL-2 cells = assay: Cell viability, MTT assay, BL-2; type: cell-based, human; details: BL-2, 48 h incubation
Description: as §1, §2, §3
The absorbance at 690 nm was taken as a baseline value. The baseline corrected absorbance at 590 nm (A(590 nm) − A(690 nm)) was applied to calculate the relative number of viable cells. IC50 values were determined by fitting the experimental data expressing the number of viable cells (%, Y-axis) versus drug concentration (μM, X-axis) with a line curve and the X-axis value corresponding to 50% viability was considered as IC50 value according to the line curve (Figure S50, Table S2).
BL-2 cells: The cells were centrifuged, the medium was removed, and the cells were washed two times with DPBS and re-suspended in RPMI 1640 medium containing 5% (48 h incubation) or 10% FBS (96 h incubation), 1% L-glutamine, and 1% penicillin/ streptomycin. This suspension was spread in the wells of a 96-well microtiter plate (50000 cells per well per 100 μL). Other steps were identical to those was described in determination of viability of adherent cells (given above) (Table S3).

Jurkat cells = assay: Jurkat flow cytometry (AnnexinA5/PI viability, DiIC1(5) MMP, monobromobimane GSH, cell cycle); type: cell-based, human; details: 48 h incubation
Description: Jurkat cells The cells were counted in MUSE Cell Analyzer using MUSE® Count &Viability Assay Kit (Merck-Millipore, Billerica, MA, USA) and adjusted to a density of 1.0 x 10^5/ml in RPMI 1640 medium (with 10% FCS and 1% glutamine). 9.000 cells per well per 90 µL were seeded into 96 well culture plates. The 30 mM prodrug stock solutions in DMSO were diluted to 300 µM, 100 µM, 30 µM and 10 µM in cell culture medium and 10 µL of the dilutions was pipetted to the cells, receiving final test concentrations of 30 µM, 10 µM, 3 µM and 1 µM. Every concentration was tested in triplicates. Cells with corresponding amounts of DMSO served as negative controls. After 48 h cells were mixed and 25 µL of […]
the cell suspension was incubated with 200 µL of freshly prepared staining solution, consisting of AnnexinA5-Fitc (1 µL), 1,1′,3,3,3′,3′-hexamethylindodicarbocyanine iodide (DiIC1(5), 0.4 µL) (both from ThermoFisher Scientific, Waltham, MA, USA), propidium iodide (PI, 67 ng) and monobromobimane (MBB, 33 µM, both from Sigma-Aldrich, Taufkirchen, Germany) per 1 ml Ringer’s solution (Fresenius Kabi AG, Bad Homburg, Germany). Cells were incubated for 20 min at 4°C and then analyzed in Gallios cytofluorometer™ (Beckman Coulter, Fullerton, CA, USA). Fitc and propidium iodide were excited at 488 nm; Fitc fluorescence was recorded on the FL1 sensor (525/38 nm band pass, BP) and propidium iodide fluorescence was detected on FL3 sensor (620/30 nm BP), DiIC1(5) fluorescence was excited at 638 nm and detected on FL6 sensor at 675/20 nm BP, and monobromobimane fluorescence was excited at 405 nm and detected on FL9 sensor at 430/40 nm BP. To eliminate any fluorescence bleed-through, electronic compensation was used. Data were analyzed employing Kaluza™ software Version 1.2 (Beckman Coulter, Fullerton, CA, USA) and processed in Microsoft Excel (Figures S51-S54, Table S5). Cells negative for Annexin A5-Fitc and propidium iodide were considered viable. IC50 values were determined by fitting the % values of Ax-PI- cells versus drug concentration with a sigmoidal curve using GraphPad Prism software. Reduced glutathione (an intracellular thiol) can be detected by monobromobimane, a dye that becomes fluorescent after non-enzymatic binding to thiols.[S3] For analysis of amount of mitochondrial membrane potential or reduced glutathione the mean fluorescence index (MFI) was determined from viable cells by gating on Ax -PI- events.
Table S5. Effects of the prodrugs on the viability of Jurkat cell lines (IC50 values) after 48

CCOC(=O)CCCCCn1cc(CN(C(=O)OCc2ccc(B(O)O)cc2)[c-]2cccc2)nn1.[Fe+2].c1cc[cH-]c1 [1_BA, reference compound]
logP (Hydrolyzed Prodrug) [1]: 2.83 ± 0.07

CC1(C)OB(c2ccc(COC(=O)N(Cc3cn(Cc4ccccc4)nn3)[c-]3cccc3)cc2)OC1(C)C.[Fe+2].c1cc[cH-]c1 [2a]
IC50 (A2780 cells; A2780, 24 h incubation): 23.7 ± 0.6 µM | IC50 (A2780 cells; A2780, 48 h incubation): 16.2 ± 1.8 µM | IC50 (A2780 cells; A2780, 96 h incubation): 10.5 ± 0.7 µM | ROS Release Efficacy [2]: 0.74 ± 0.19 | logP (Hydrolyzed Prodrug) [1]: 2.92 ± 0.14 | logP (Prodrug) [1]: 5.27 ± 0.10 | cancer cell specificity, primary CLL cells vs MNCs [3]: some specificity towards primary CLL cells | Solubility [4]: 100 µM | first signs of precipitation ([4]; immediately after dilution in RPMI 1640, FBS 5%): 50 µM

O=C(OCc1ccc(B(O)O)cc1)N(Cc1cn(Cc2ccc(Cn3cc(Cc4ccccc4)nn3)cc2)nn1)[c-]1cccc1.[Fe+2].c1cc[cH-]c1 [2c_BA]
logP (Hydrolyzed Prodrug) [1]: 3.23 ± 0.11

CN(C)C(=O)c1ccc(COC(=O)N(Cc2cn(Cc3ccc(Cn4cc(Cc5ccccc5)nn4)cc3)nn2)[c-]2cccc2)cc1.[Fe+2].c1cc[cH-]c1 [2c_c]
IC50 (A2780 cells; A2780, 96 h incubation): 6.1 ± 1.5 µM | ROS Release Efficacy [2]: 0.050 ± 0.003 | logP (Prodrug) [1]: 3.90 ± 0.08 | Solubility [4]: 55 ± 5 µM

C1=CCC=C1.CC1(C)OB(c2ccc(COC(=O)N(Cc3cn(CCC[P+](c4ccccc4)(c4ccccc4)c4ccccc4)nn3)C3C=CC=C3)cc2)OC1(C)C.[Fe+2] [5c, reference compound]
IC50 (A2780 cells; A2780, 24 h incubation): 10 ± 3 µM | IC50 (A2780 cells; A2780, 48 h incubation): 5 ± 2 µM | IC50 (A2780 cells; A2780, 96 h incubation): 5 ± 2 µM | IC50 (BL-2 cells): 5 µM | IC50 (Jurkat cells): 20 µM

[Fe+2].c1cc[cH-]c1.c1ccc(Cn2cc(CN[c-]3cccc3)nn2)cc1 [compound 3]
IC50 (A2780 cells; A2780, 48 h incubation): > 50 µM

[Fe+2].c1cc[cH-]c1.c1ccc(CN[c-]2cccc2)cc1 [compound 4]
IC50 (A2780 cells; A2780, 48 h incubation): > 50 µM
